Measurements: patent publication US9694073B2, “Small molecule inhibitors of polynucleotide kinase/phosphatase, poly(ADP-ribose) polymerase and uses thereof” (THE GOVERNORS OF THE UNIVERSITY OF ALBERTA, priority 2009, dated 2017)
“Also recorded” adds a separate entry of the source.

Legend:
[1] = tested on: M059J cells (DNA-PKcs negative); assay type: cell-based, human
[2] = target: T1, Schizosaccharomyces pombe PNKP (Schizosaccharomyces pombe, UniProt O13911); assay: PiColorLock 3'-phosphatase assay, fission yeast PNKP; assay type: biochemical; conditions: read-out: inhibition of S. pombe PNKP
T1 construct: made in house
T1 sequence (O13911 1-408): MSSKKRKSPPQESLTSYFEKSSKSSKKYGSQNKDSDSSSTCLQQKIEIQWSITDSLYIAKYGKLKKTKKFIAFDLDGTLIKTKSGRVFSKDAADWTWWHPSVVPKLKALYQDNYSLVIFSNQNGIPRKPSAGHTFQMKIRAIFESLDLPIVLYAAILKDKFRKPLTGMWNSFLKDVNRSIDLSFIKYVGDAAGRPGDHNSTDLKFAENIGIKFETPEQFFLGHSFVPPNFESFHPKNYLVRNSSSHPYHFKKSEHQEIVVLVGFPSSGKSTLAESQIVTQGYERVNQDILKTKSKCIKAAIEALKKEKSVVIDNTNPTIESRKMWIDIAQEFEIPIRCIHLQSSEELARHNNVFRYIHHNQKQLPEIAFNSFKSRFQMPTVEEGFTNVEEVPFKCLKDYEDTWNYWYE
Source text: (§1) To determine the specificity of A12B4C3 for human PNKP phosphatase activity, a number of closely related phosphatases such as the PNKP enzymes isolated from bacteriophage T4, Schizosaccharomyces pombe and mouse, as well as aprataxin, were examined.

[3] = tested on: DNA Polymerase β Dominant Negative (Pol β DN) A549 cells; assay: Synthetic lethality cell proliferation assay; assay type: cell-based, human; conditions: increasing concentrations, 72 hours
mouse PNKP = target: T2, mouse PNKP (Mus musculus, UniProt Q9JLV6); assay: PiColorLock 3'-phosphatase assay, mouse PNKP; assay type: biochemical; conditions: all concentrations tested (down to 5 μM)
T2 construct: made in house
Source text: as §1

[4] = target: human PNKP phosphatase activity (Homo sapiens, UniProt Q96T60); assay: PiColorlock Gold assay for 3'-phosphatase activity (release of inorganic phosphate)
[5] = target: T3, hPNKP 3'-phosphatase activity (Homo sapiens, UniProt Q96T60); assay: Conventional radio-gel assay for hPNKP 3'-phosphatase activity; assay type: biochemical
T3 construct: made in house; host or cells: bacteria (said only for the batch compared with aprataxin)

[6] = target: T4, human PNKP kinase activity (Homo sapiens, UniProt Q96T60); assay: DNA kinase assay; assay type: biochemical
T4 construct: made in house; host or cells: bacteria (said only for the batch compared with aprataxin)
Experimental: Reaction mixtures (20 μl) containing kinase buffer (80 mM succinic acid (pH 5.5), 10 mM MgCl2, and 1 mM DTT), 100 μM 20-mer oligonucleotide substrate, 3.3 pmol of [γ-32P]ATP, A12B4C3 (0-50 μM) in 2 μl DMSO, and 1 μg of PNK were incubated at 37° C. for 20 minutes. The reaction was stopped by addition of an equal volume of DNA loading dye (90% formamide, 0.02% bromophenol blue, 0.02% xylene cyanol in 1×TBE). Samples were boiled for 5 minutes and the products separated on a 12% polyacrylamide/8 M urea gel. Gels were scanned with a Typhoon 9400 Variable Mode Imager (GE Healthcare), and quantified using Image Quant 5.2 Software (GE Healthcare).
The effect of A12B4C3 on the kinase activity of human PNKP was examined by quantifying the transfer of ^32P-labeled phosphate from radiolabeled ATP to an oligonucleotide. […] However, the inhibition of the kinase and phosphatase activities cannot be directly compared because the standard assay for kinase activity uses ten-fold more enzyme than the assay for phosphatase activity

A549 cells = assay: Chemosensitization to camptothecin, clonogenic survival assay; assay type: cell-based, human; conditions: 1 mM A12B4C3 2 hours before camptothecin, further 24 hours, wild type A549
Experimental: The effect of hPNKP inhibition by A12B4C3 on cellular survival following exposure to the topoisomerase I poison, camptothecin, was measured in A549 and A549δPNKP cells by the clonogenic survival assay (colony forming assay). Cells were seeded on 60-mm tissue culture plates at various concentrations to give between about 100-1000 colonies per plate and returned to the incubator overnight to allow the cells to attach. For chemosensitization studies, the cells were incubated with or without 1 mM A12B4C3 for 2 hours before addition of camptothecin and then exposed to increasing doses of camptothecin (Sigma). After addition of the topoisomerase I poison, cells were incubated for a further 24 hours in the same media and then washed twice with phosphate-buffered saline (PBS) and incubated in fresh media without the inhibitor. Colonies were stained with crystal violet after 10 to 14 days and counted with an automated Colcount colony counter (Oxford Optronix, Oxford, UK).
The capacity of A12B4C3 to act as a chemosensitizer was then examined. […] Colonies were stained with crystal violet after 10 to 14 days and counted with an automated Colcount colony counter (Oxford Optronix, Oxford, UK).

[7] = target: T5, Phage T4 polynucleotide kinase (T4 PNK) (Enterobacteria phage T4, UniProt P06855); assay: PiColorLock 3'-phosphatase assay, phage T4 PNK; assay type: biochemical, bacteriophage T4
T5 construct: purchased Roche Diagnostics (Indianapolis, Ind.)
Source text: as §1

T5 sequence (P06855 whole entry): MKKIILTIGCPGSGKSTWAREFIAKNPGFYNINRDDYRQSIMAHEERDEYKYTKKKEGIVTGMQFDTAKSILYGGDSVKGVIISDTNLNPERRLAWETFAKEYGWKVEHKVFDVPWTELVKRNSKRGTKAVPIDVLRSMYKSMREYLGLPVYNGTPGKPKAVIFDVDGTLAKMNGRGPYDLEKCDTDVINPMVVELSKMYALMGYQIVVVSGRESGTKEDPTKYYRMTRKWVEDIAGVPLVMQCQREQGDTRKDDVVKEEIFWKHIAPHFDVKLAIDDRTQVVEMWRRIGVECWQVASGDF
T2 sequence (Q9JLV6 whole entry): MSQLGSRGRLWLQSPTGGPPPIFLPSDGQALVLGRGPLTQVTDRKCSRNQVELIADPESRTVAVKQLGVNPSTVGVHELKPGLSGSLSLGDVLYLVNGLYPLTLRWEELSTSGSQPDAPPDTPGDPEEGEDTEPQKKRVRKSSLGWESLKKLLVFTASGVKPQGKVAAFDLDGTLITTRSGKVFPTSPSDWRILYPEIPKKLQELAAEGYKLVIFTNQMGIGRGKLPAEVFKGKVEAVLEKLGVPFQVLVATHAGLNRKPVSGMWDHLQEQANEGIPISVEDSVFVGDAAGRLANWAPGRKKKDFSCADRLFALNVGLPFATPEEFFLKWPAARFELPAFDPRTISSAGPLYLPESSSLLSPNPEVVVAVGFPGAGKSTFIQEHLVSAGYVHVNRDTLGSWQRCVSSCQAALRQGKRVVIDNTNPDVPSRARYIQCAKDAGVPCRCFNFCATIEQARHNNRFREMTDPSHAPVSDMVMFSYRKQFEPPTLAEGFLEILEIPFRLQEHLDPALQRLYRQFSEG

**Q.** What does the source list for `CCCCCCCCCCC(O)C1C=CC2C(=O)N(c3ccccc3)C(=O)C2N1Nc1ccc([N+](=O)[O-])cc1` (stereo not shown) [Compound A12B4C3, 2-(1-hydroxyundecyl)-1-(4-nitrophenylamino)-6-phenyl-6,7a-dihydro-1H-pyrrolo[3,4-b]pyridine-5,7(2H,4aH)-dione]?
**A.** synthetic lethality in M059J cells [1]: no synthetic lethality is seen; inhibition at 50 µM [2]: ~20%; cell survival of Pol β DN cells [3]: reduced survival; also recorded: inverse relationship; inhibition of mouse PNKP (mouse PNKP): significantly inhibited; concentration giving near maximal inhibition ([4]; PiColorLock Gold): 5 µM; potency rank among the five PNKP inhibitors ([4]; PiColorLock Gold, FIG. 4B): most potent; inhibition at 50 µM ([4]; read-out: inhibition of human PNKP): ~85%; inhibition of hPNKP phosphatase activity, radio-gel assay [5]: inhibited; inhibition at 1 µM ([6]; 1 μM): ~16%; reduction of human PNKP kinase activity ([6]; 50 μM): ~30%; chemosensitization to camptothecin (A549 cells): effectively sensitized; inhibition of phage T4 PNKP ([7]; 50 μM): failed to inhibit; inhibition at 50 µM ([7]; read-out: inhibition of phage T4 PNKP): ~12.5%
